Values of other authors in US20060046998A1, “Method of treatment of gastroesophageal reflux disease and laryngopharyngeal reflux disease” (Fairfield Clinical Trials, LLC, priority 2004, published 2006).

Conditions: oral, when beginning a course of PPI therapy

| SMILES | time to obtain maximal symptomatic relief |
| --- | --- |
| Cc1c(OCC(F)(F)F)ccnc1C[S+]([O-])c1nc2ccccc2[nH]1 (centres unmarked) [lansoprazole] | five |
| COc1ccc2nc([S@@+]([O-])Cc3ncc(C)c(OC)c3C)[nH]c2c1 [esomeprazole] | four |
